Experimental data as given in publication PMC5271370, “A High-Content Assay Enables the Automated Screening and Identification of Small Molecules with Specific ALDH1A1-Inhibitory Activity” (PLoS ONE, 2017).
pIC50: −log10 of the molar value. Where two headings read alike, the source gives them in different places.

Tests used:
[1] = target: T1, Human ALDH1A3 (Homo sapiens, UniProt P47895); test: 1,536-well enzymatic assay (NADH fluorescence), ALDH1A3; format: biochemical
T1 construct: purchased ThermoFisher 11636H07E50
T1 sequence (P47895 1-512): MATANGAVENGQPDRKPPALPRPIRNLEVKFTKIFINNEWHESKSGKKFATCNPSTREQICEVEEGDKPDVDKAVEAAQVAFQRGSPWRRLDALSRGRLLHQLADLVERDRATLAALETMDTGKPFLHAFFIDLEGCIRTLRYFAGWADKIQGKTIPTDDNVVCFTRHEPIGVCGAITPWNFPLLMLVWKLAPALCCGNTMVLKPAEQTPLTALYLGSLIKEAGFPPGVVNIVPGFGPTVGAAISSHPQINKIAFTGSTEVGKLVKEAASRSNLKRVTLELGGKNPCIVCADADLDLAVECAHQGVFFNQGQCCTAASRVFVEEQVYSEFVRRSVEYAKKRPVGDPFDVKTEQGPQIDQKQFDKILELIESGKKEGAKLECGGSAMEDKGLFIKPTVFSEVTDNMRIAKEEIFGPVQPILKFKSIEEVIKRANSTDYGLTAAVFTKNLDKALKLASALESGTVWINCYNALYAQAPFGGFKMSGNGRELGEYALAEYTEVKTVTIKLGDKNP
Source text: (§1) To validate our optimized assay, we assembled a set of 20 previously reported ALDH inhibitors, with varying degrees of target specificity (Table 1 and S4 Fig). […] Briefly, the assay measures the dehydrogenase activity of recombinant human ALDH1A1, ALDH1A2, ALDH1A3, ALDH2 or ALDH3A1 using NAD(P)^+ and either propionaldehyde or benzaldehyde as substrates. An orthogonal resorufin-based assay format was also run with isolated ALDH1A1 to rule out potential false positives due to intrinsic compound fluorescence.
(§2) Human ALDH1A1 and ALDH3A1 were expressed and purified as described elsewhere. Human ALDH2 was purchased from Abcam (ab87415). Human ALDH1A2 and ALDH1A3 were purchased from MyBioSource (MBS1005929; San Diego, CA) and ThermoFisher (11636H07E50), respectively. The inhibitory activity of compounds against ALDHs was measured according to protocols described previously. Briefly, 3 μL of enzyme (final concentrations of 20 nM for ALDH1A1, 50 nM for ALDH1A2, 50 nM for ALDH1A3, 75 nM for ALDH2 and 5 nM for ALDH3A1) in assay buffer (100 mM HEPES pH 7.5 with 0.01% Tween 20) were dispensed into a 1,536-well solid-bottom black plate (Greiner Bio One, Monroe, NC). […] Samples were incubated (room temperature, protected from light) for 15 minutes followed by a 1 μL substrate addition of NAD^+ and Propionaldehyde (final concentrations of 1 mM and 80 μM, respectively) for ALDH1A1, 1A2, 1A3, and ALDH2 or NADP^+ and benzaldehyde (final concentrations of 1 mM and 200 μM, respectively) for ALDH3A1. Plates were centrifuged at 1,000 rpm for 15 seconds, then read in kinetic mode on a ViewLux High-throughput CCD imager (PerkinElmer, Waltham, MA) equipped with standard UV fluorescence optics (340 nm excitation, 450 nm emission) for 5 (ALDH1A1, ALDH1A2, ALDH2, ALDH3A1) or 30 (ALDH1A3) minutes. The change in fluorescence intensity over the 5- or 30-minute reaction period was normalized against no-inhibitor and no-enzyme controls and the resulting percent inhibition data were fitted to a 4-parameter Hill equation. Bay-11 7085 was used as intraplate control. To account for artifacts due to intrinsic compound fluorescence in the above spectrum, compounds were also tested in an orthogonal resorufin assay format with optics of excitation 525 nm/emission 598 nm as described before. The same parameters as the NADH assay were used for the resorufin assay, with the addition of (final) 133 μg/mL diaphorase and 37 μM resazurin to the assay solution. Same controls were used in both formats.

[2] = target: T2, Human ALDH2 (Homo sapiens, UniProt P05091); test: 1,536-well enzymatic assay (NADH fluorescence), ALDH2; format: biochemical
T2 construct: purchased Abcam ab87415
T2 sequence (P05091 18-517): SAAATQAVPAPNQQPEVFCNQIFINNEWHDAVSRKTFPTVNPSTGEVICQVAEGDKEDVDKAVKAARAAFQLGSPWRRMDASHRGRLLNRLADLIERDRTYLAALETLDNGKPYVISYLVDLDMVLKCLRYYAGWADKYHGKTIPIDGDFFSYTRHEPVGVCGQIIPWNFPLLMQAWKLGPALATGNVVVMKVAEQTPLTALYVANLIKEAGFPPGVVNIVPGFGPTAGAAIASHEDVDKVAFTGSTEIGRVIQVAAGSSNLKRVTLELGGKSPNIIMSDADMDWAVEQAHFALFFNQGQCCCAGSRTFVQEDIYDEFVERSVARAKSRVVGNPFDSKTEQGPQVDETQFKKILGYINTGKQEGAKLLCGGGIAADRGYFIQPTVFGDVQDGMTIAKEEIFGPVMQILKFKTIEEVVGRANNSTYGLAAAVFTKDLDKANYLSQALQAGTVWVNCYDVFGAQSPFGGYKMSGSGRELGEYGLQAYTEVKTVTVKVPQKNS
Source text: as §1, §2

[3] = target: T3, Human ALDH1A2 (Homo sapiens, UniProt O94788); test: 1,536-well enzymatic assay (NADH fluorescence), ALDH1A2; format: biochemical
T3 construct: purchased MyBioSource MBS1005929
T3 sequence (O94788 1-518): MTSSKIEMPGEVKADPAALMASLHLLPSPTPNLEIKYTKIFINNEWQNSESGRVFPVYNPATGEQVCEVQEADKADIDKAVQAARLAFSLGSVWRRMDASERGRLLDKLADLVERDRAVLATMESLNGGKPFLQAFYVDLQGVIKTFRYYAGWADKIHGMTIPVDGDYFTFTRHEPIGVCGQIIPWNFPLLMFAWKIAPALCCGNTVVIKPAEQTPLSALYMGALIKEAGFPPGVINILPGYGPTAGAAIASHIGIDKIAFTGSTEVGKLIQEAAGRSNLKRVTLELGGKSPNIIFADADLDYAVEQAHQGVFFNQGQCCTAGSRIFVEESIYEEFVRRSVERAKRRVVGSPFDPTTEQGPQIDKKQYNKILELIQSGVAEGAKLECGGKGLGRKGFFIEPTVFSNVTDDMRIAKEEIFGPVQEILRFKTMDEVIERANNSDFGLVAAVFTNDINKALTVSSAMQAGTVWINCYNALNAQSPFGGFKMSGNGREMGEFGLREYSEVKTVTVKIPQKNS
Source text: as §1, §2

[4] = test system: ALDH1A1; details: reported ALDH target 1A1; read-out: Reported Biochemical IC50, ALDH1A1; cited from earlier work
[5] = validation set, 50 nM enzyme, NAD+ and propionaldehyde, read-out: Biochemical IC50 ALDH1A3
[6] = validation set, 75 nM enzyme, NAD+ and propionaldehyde, read-out: Biochemical IC50 ALDH2
[7] = validation set, 50 nM enzyme, NAD+ and propionaldehyde, read-out: Biochemical IC50 ALDH1A2
[8] = hits of dual cell-based screen (Table 2), read-out: Biochemical IC50 ALDH1A3

Compound	pIC50 [1, 5]	pIC50 [2, 6]	pIC50 [3, 7]	pIC50 [4]	other results
CC(C)=CCCC(C)=CC=O (mixture of isomers) [Citral]	5.57	5.37	–	–	–
COc1ccc(C(=O)CCN(C)C)cc1F [Aldi-2]	6.62	7.00	6.92	5.60	–
CC(C)(C)c1ccc(S(=O)(=O)/C=C/C#N)cc1 [Bay-11-7085]	6.17	7.30	6.42	7.13	–
Cc1nc2ccccc2n1S(=O)(=O)c1ccc(F)cc1 [CB7]	4.92	4.72	4.82	–	–
CCOc1ccc(NCC(=O)Nc2ccc(Cl)cc2C)cc1 [CID 725345]	5.42	5.67	6.47	5.46	–
COc1cccc2cc(C(=O)CC3(O)C(=O)N(Cc4ccccc4)c4ccccc43)c(=O)oc12 (stereo not drawn) [CID 2929292]	4.62	5.02	5.52	7.05	–
CCN(CC)c1ccc(C=O)cc1 [DEAB, 4-N,N-diethylaminobenzaldehyde]	4.62	–	5.47	–	–
O=c1c(-c2ccc(O)cc2)coc2cc(O[C@@H]3O[C@H](CO)[C@@H](O)[C@H](O)[C@H]3O)ccc12 [Daidzin]	–	–	–	–	pIC50 [1]: 4.62; pIC50 [3]: 4.67
CCN(CC)C(=S)SSC(=S)N(CC)CC [Disulfiram]	6.17	–	6.85	6.82	–
Cc1cc2c(C(C)C)c(O)c(O)c(C=O)c2c(O)c1-c1c(C)cc2c(C(C)C)c(O)c(O)c(C=O)c2c1O [Gossypol]	–	–	–	4.12	pIC50 [1]: 5.07; pIC50 [2]: 4.62; pIC50 [3]: 5.27
Nc1ccccc1C(=O)CC(N)C(=O)O (stereo not drawn) [Kynurenine]	4.57	–	4.62	–	–
C[S+](=O)([O-])c1ccc(Cn2c3c(c4cc(F)cc(F)c42)CCCC3CC(=O)O)cc1 [L-670596]	–	–	–	–	pIC50 [1, 8]: 4.45
C#CCN(C)Cc1ccccc1 [Pargyline]	4.77	–	4.62	–	–
CC(C)N(C(=O)CCl)c1ccccc1 [Propachlor]	–	–	–	–	pIC50 [1, 8]: 5.25; pIC50 ([2]; hits of dual cell-based screen (Table 2), read-out: Biochemical IC50 ALDH2): 4.90; pIC50 ([3]; hits of dual cell-based screen (Table 2), read-out: Biochemical IC50 ALDH1A2): 6.49
O=C1Nc2ccccc2C1=O [indoline-2,3-dione]	5.12	4.67	6.17	7.70	–
CVT-10216	4.57	5.92	6.47	5.89	–
